Results: publication PMC10054553, “Development of the First ^18F-Labeled Radiohybrid-Based Minigastrin Derivative with High Target Affinity and Tumor Accumulation by Substitution of the Chelating Moiety” (Pharmaceutics, 2023)
Where two headings read alike, the source gives them in different places.

Columns and labels:
[1] = Biodistribution in AR42J tumor-bearing CB17-SCID mice; type: in vivo; conditions: mouse; for tissue to tissue ratio at 24 h: both sexes, CB17-SCID, total radioactivity; for tissue to tissue ratio at 24 h / tissue uptake at 24 h: 24 h p.i.; for tissue uptake at 1 h: 1 h p.i.
Experimental: (§1) All animal experiments were conducted in accordance with general animal welfare regulations in Germany (German animal protection act, in the edition of the announcement, dated 18 May 2006, as amended by Article 280 of 19 June 2020, approval no. ROB-55.2-1-2532.Vet_02-18-109 by the General Administration of Upper Bavaria) and the institutional guidelines for the care and use of animals. CB17-SCID mice of both genders and aged 2–12 months (Charles River Laboratories International Inc., Sulzfeld, Germany) were allowed to acclimate at the in-house animal facility for at least one week before inoculation was performed. Tumor xenografts were established as previously reported. Exclusion criteria for animals from an experiment were either weight loss higher than 20%, a tumor size above 1500 mm^3, an ulceration of the tumor, respiratory distress or a change of behavior. None of these criteria applied to any animal from the experiment. Neither randomization nor blinding was applied in the allocation of the experiments. Health status is SPF according to FELASA recommendation.
(§2) Biodistribution studies (n = 4) and µSPECT/CT as well as µPET/CT imaging (using a MILabs VECTor^4 small-animal SPECT/PET/OI/CT device, MILabs, Utrecht, The Netherlands) at 1 and 24 h p.i. were carried out as previously published. For all ^177Lu-labeled compounds, approximately 2–3 MBq (100 pmol)—and for the ^18F-labeled analog, approximately 7 MBq (100 pmol)—were administered. For all competition studies, 2.90 mg/kg (40 nmol) of [^natLu]Lu-DOTA-MGS5 (10^−3 M in phosphate-buffered saline) were co-administered.

[2] = test system: AR42J tumor-bearing CB17-SCID mice; assay: as above; type: in vivo; conditions: 24 h p.i.
Experimental: as §1, §2

[3] = adrenal, 100 pmol, 100 pmol, n = 4, read-out: Adrenal activity
[4] = blood, 100 pmol, 100 pmol, n = 4, read-out: Blood activity
[5] = bone, 100 pmol, 100 pmol, n = 4, read-out: Bone activity
[6] = heart, 100 pmol, 100 pmol, n = 4, read-out: Heart activity
[7] = intestine, 100 pmol, 100 pmol, n = 4, read-out: Intestine activity
[8] = liver, 100 pmol, 100 pmol, n = 4, read-out: Liver activity
[9] = lung, 100 pmol, 100 pmol, n = 4, read-out: Lung activity
[10] = muscle, 100 pmol, 100 pmol, n = 4, read-out: Muscle activity
[11] = 100 pmol co-injected with DOTA-MGS5 (40 nmol), n = 2

SMILES: CCCC[C@H](NC(=O)[C@H](Cc1c[nH]c2ccccc12)NC(=O)CNC(=O)[C@H](Cc1ccc(O)cc1)NC(=O)[C@H](C)NC(=O)CC[C@@H](NC(=O)CC[C@@H](NC(=O)CC[C@@H](NC(=O)CC[C@@H](NC(=O)CC[C@@H](NC(=O)CC[C@@H](NC(=O)CC[C@@H](NC(=O)CC[C@@H](NC(=O)[C@@H](CNC(=O)c1ccc([Si](F)(C(C)(C)C)C(C)(C)C)cc1)NC(=O)CN1CCN(CC(=O)O)CCN(CC(=O)O)CCN(CC(=O)O)CC1)C(=O)O)C(=O)O)C(=O)O)C(=O)O)C(=O)O)C(=O)O)C(=O)O)C(=O)O)C(=O)N[C@@H](CC(=O)O)C(=O)N[C@@H](Cc1ccccc1)C(N)=O [[^19F]F-[^177Lu]Lu-DOTA-rhCCK-18, metal not drawn]
- tissue to tissue ratio at 24 h ([1]; tumor / adrenal, 100 pmol, n = 4, read-out: Tumor-to-background ratio, Adrenal): 73.3 ± 13.4
- tissue to tissue ratio at 24 h ([1]; tumor / blood, 100 pmol, n = 4, read-out: Tumor-to-background ratio, Blood): 1630 ± 823
- tissue to tissue ratio at 24 h ([1]; tumor / bone, 100 pmol, n = 4, read-out: Tumor-to-background ratio, Bone): 151 ± 48
- tissue to tissue ratio at 24 h ([1]; tumor / heart, 100 pmol, n = 4, read-out: Tumor-to-background ratio, Heart): 312 ± 58
- tissue to tissue ratio at 24 h ([1]; tumor / intestine, 100 pmol, n = 4, read-out: Tumor-to-background ratio, Intestine): 124 ± 30
- tissue to tissue ratio at 24 h ([1]; tumor / kidney, 100 pmol, n = 4, read-out: Tumor-to-background ratio, Kidney): 0.19 ± 0.01
- tissue to tissue ratio at 24 h ([1]; tumor / liver, 100 pmol, n = 4, read-out: Tumor-to-background ratio, Liver): 48.1 ± 6.7
- tissue to tissue ratio at 24 h ([1]; tumor / lung, 100 pmol, n = 4, read-out: Tumor-to-background ratio, Lung): 236 ± 118
- tissue to tissue ratio at 24 h ([1]; tumor / muscle, 100 pmol, n = 4, read-out: Tumor-to-background ratio, Muscle): 650 ± 542
- tissue to tissue ratio at 24 h ([1]; tumor / pancreas, 100 pmol, n = 4, read-out: Tumor-to-background ratio, Pancreas): 78.8 ± 17.5
- tissue to tissue ratio at 24 h ([1]; tumor / spleen, 100 pmol, n = 4, read-out: Tumor-to-background ratio, Spleen): 115 ± 15
- tissue to tissue ratio at 24 h ([1]; tumor / stomach, 100 pmol, n = 4, read-out: Tumor-to-background ratio, Stomach): 6.58 ± 2.77
- tissue uptake at 1 h [1, 3]: 0.52 ± 0.07 %ID/g
- tissue uptake at 24 h [1, 3]: 0.37 ± 0.12 %ID/g
- tissue uptake at 24 h ([1]; adrenal, 100 pmol co-injected with DOTA-MGS5 (40 nmol), n = 2, read-out: Adrenal activity, competition studies): 5.02 ± 4.64 %ID/g
- tissue uptake at 1 h [1, 4]: 2.56 ± 0.6 %ID/g
- tissue uptake at 24 h [1, 4]: 0.02 ± 0.01 %ID/g
- tissue uptake at 24 h ([1]; blood, 100 pmol co-injected with DOTA-MGS5 (40 nmol), n = 2, read-out: Blood activity, competition studies): 0.02 %ID/g
- tissue uptake at 1 h ([1]; blood, heart and lung, 100 pmol, span over the three organs, read-out: Blood, heart and lung levels): 0.9 to 2.6 %ID/g
- tissue uptake at 24 h ([1]; blood, heart and lung, 100 pmol, the three organs, read-out: Blood, heart and lung levels): < 0.2 %ID/g
- tissue uptake at 1 h [1, 5]: 0.48 ± 0.02 %ID/g
- tissue uptake at 24 h [1, 5]: 0.18 ± 0.03 %ID/g
- tissue uptake at 1 h [1, 6]: 0.94 ± 0.02 %ID/g
- tissue uptake at 24 h [1, 6]: 0.08 ± 0.02 %ID/g
- tissue uptake at 24 h ([1]; heart, 100 pmol co-injected with DOTA-MGS5 (40 nmol), n = 2, read-out: Heart activity, competition studies): 0.08 ± 0.01 %ID/g
- tissue uptake at 1 h [1, 7]: 0.61 ± 0.11 %ID/g
- tissue uptake at 24 h [1, 7]: 0.21 ± 0.02 %ID/g
- tissue uptake at 24 h ([1]; intestine, 100 pmol co-injected with DOTA-MGS5 (40 nmol), n = 2, read-out: Intestine activity, competition studies): 0.17 ± 0.06 %ID/g
- tissue uptake at 1 h ([1]; kidney, 100 pmol, 100 pmol, n = 4, read-out: Kidney activity): 97.2 ± 14 %ID/g
- tissue uptake at 24 h ([1]; kidney, 100 pmol co-injected with DOTA-MGS5 (40 nmol), n = 2, read-out: Kidney activity, competition studies): 193 ± 15 %ID/g
- tissue uptake at 1 h [1, 8]: 1.15 ± 0.18 %ID/g
- tissue uptake at 24 h [1, 8]: 0.53 ± 0.07 %ID/g
- tissue uptake at 24 h ([1]; liver, 100 pmol co-injected with DOTA-MGS5 (40 nmol), n = 2, read-out: Liver activity, competition studies): 1.51 ± 0.02 %ID/g
- tissue uptake at 1 h [1, 9]: 2.05 ± 0.2 %ID/g
- tissue uptake at 24 h [1, 9]: 0.18 ± 0.15 %ID/g
- tissue uptake at 24 h ([1]; lung, 100 pmol co-injected with DOTA-MGS5 (40 nmol), n = 2, read-out: Lung activity, competition studies): 0.76 ± 0.17 %ID/g
- tissue uptake at 1 h [1, 10]: 0.38 ± 0.03 %ID/g
- tissue uptake at 24 h [1, 10]: 0.08 ± 0.06 %ID/g
- tissue uptake at 24 h ([1]; muscle, 100 pmol co-injected with DOTA-MGS5 (40 nmol), n = 2, read-out: Muscle activity, competition studies): 0.07 ± 0.04 %ID/g
- tissue uptake at 1 h ([1]; pancreas, 100 pmol, 100 pmol, n = 4, read-out: Pancreas activity): 1.22 ± 0.21 %ID/g
- tissue uptake at 1 h ([1]; spleen, 100 pmol, 100 pmol, n = 4, read-out: Spleen activity): 0.6 ± 0.08 %ID/g
- tissue uptake at 24 h ([1]; spleen, 100 pmol co-injected with DOTA-MGS5 (40 nmol), n = 2, read-out: Spleen activity, competition studies): 0.95 ± 0.14 %ID/g
- tissue uptake at 1 h ([1]; stomach, 100 pmol, 100 pmol, n = 4, read-out: Stomach activity): 4.25 ± 0.45 %ID/g
- tissue uptake at 1 h ([1]; tumor, 100 pmol, 100 pmol, n = 4, AR42J tumor, read-out: Tumor activity): 24.1 ± 4.2 %ID/g
- tissue uptake at 24 h ([1]; tumor, 100 pmol co-injected with DOTA-MGS5 (40 nmol), n = 2, read-out: Tumor activity, competition studies): 1.75 ± 0.26 %ID/g

SMILES: CCCC[C@H](NC(=O)[C@H](Cc1c[nH]c2ccccc12)NC(=O)CNC(=O)[C@H](Cc1ccc(O)cc1)NC(=O)[C@H](C)NC(=O)CC[C@@H](NC(=O)CC[C@@H](NC(=O)CC[C@@H](NC(=O)CC[C@@H](NC(=O)CC[C@@H](NC(=O)CC[C@@H](NC(=O)CC[C@@H](NC(=O)CC[C@@H](NC(=O)[C@@H](CNC(=O)c1ccc([Si](F)(C(C)(C)C)C(C)(C)C)cc1)NC(=O)CN1CCN(CC(=O)O)CCN(CC(=O)O)CCN(CC(=O)O)CC1)C(=O)O)C(=O)O)C(=O)O)C(=O)O)C(=O)O)C(=O)O)C(=O)O)C(=O)O)C(=O)N[C@@H](CC(=O)O)C(=O)N[C@@H](Cc1ccccc1)C(N)=O [[^19F]F-[^177Lu]Lu-DOTA-rhCCK-18] [metal not drawn]
- fold enhanced kidney values compared to [177Lu]Lu-DOTA-PP-F11N [2]: 40 fold
- fold higher tumor uptake compared to [177Lu]Lu-DOTA-PP-F11N [2]: 13 fold
- Pancreas activity, competition studies [2, 11]: 0.22 ± 0.02 %ID/g
- Stomach activity, competition studies [2, 11]: < 2 %ID/g
- Tumor activity, competition studies [2, 11]: < 2 %ID/g
- Kidney activity ([2]; 100 pmol, n = 4): 134 ± 18 %ID/g
- Pancreas activity ([2]; 100 pmol, n = 4): 0.34 ± 0.09 %ID/g
- Stomach activity ([2]; 100 pmol, n = 4): 4.28 ± 1.05 %ID/g
- Tumor activity ([2]; 100 pmol, n = 4, AR42J tumor): 25.4 ± 4.7 %ID/g
- fold higher tumor uptake compared to (R)-DOTAGA derivative ([2]; b47: versus [177Lu]Lu-(R)-DOTAGA-rhCCK-16): 1.5 fold
